We go through two compounds from publication PMC8617627, “Novel DYRK1A Inhibitor Rescues Learning and Memory Deficits in a Mouse Model of Down Syndrome” (Pharmaceuticals, 2021).

Structures are written as SMILES. Where two headings read alike, the source gives them in different places.

Assay in all cases: Kinase profile (33P ATP filter binding)
Common to all, as to format: biochemical

In one test the target is RSK2 (Homo sapiens, UniProt P51812). Conditions: read-out: Remaining protein kinase activity. How it is done: (§1) The compounds were diluted to the appropriate concentration. The compounds were added to a “mother plate” consisting of samples, controls, and blanks. These serve as the source for “daughter plates” which are stored at −20 °C until assay initiation. Protein Kinases: Enzyme/Substrate mixture was added to the compound, and the compounds were incubated for five minutes at room temperature (RT). ^33P ATP was added to the compounds to initiate the assay. Orthophosphoric acid was added to the compounds to halt the assay. Assay components were harvested onto P81 filter plates, filter plates were air-dried, scintillation fluid was added to plates, and counts were read on a Topcount NXT. A mean percentage activity was calculated.
Chain of RSK2 (P51812 whole entry, species assumed): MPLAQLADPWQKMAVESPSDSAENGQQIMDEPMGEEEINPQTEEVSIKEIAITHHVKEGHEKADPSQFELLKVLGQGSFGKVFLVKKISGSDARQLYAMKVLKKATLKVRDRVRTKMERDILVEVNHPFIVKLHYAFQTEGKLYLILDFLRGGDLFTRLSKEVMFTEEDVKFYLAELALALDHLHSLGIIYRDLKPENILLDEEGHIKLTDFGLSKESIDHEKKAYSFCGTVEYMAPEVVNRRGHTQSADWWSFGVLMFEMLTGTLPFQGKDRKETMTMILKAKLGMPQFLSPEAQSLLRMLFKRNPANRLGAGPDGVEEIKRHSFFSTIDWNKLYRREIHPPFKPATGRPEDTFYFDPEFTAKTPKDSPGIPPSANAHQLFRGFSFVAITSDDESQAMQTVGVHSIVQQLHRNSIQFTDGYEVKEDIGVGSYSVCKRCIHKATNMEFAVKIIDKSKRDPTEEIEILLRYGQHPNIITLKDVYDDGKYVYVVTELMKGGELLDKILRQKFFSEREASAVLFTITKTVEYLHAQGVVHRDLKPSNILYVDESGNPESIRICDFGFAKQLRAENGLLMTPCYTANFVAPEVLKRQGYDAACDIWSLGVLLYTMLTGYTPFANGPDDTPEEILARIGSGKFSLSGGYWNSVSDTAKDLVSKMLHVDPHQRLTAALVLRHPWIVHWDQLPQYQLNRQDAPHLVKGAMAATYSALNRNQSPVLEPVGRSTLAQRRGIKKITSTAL

The next test deals with T1, ULK2 (Homo sapiens, UniProt Q8IYT8).
T1 sequence (Q8IYT8 1-1036): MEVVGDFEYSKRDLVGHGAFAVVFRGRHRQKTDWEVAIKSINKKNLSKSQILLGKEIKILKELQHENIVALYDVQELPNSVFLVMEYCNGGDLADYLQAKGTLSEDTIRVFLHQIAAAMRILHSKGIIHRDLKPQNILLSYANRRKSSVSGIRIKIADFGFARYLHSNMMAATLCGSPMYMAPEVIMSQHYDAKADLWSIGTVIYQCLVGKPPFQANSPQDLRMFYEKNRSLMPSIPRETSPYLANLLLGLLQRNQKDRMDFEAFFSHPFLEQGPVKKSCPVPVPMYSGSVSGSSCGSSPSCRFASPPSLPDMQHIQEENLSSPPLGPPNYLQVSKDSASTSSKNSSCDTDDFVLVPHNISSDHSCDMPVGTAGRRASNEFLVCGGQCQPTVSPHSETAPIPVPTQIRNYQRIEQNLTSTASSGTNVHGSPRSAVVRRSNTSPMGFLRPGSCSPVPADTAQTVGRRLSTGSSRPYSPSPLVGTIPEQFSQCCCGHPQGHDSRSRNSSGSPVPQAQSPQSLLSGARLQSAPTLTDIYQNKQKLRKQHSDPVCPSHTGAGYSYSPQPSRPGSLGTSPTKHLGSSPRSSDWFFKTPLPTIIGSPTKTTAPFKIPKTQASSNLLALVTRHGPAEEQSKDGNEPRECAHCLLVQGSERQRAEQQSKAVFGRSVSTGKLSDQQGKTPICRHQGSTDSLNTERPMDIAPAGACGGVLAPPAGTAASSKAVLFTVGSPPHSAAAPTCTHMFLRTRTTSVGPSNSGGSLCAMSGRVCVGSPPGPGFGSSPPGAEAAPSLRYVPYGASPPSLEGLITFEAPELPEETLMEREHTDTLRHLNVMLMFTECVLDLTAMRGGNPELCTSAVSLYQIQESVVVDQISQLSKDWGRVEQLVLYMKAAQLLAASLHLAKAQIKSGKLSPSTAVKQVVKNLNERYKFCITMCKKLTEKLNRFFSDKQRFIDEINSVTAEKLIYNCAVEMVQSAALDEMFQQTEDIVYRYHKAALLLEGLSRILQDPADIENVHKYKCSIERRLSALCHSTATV
Conditions: read-out: Remaining protein kinase activity. The method, then: as §1

The target in the next test is EPH-A4 (Homo sapiens, UniProt P54764). Conditions: read-out: Remaining protein kinase activity. How it is done: as §1
Chain of EPH-A4 (P54764 20-986): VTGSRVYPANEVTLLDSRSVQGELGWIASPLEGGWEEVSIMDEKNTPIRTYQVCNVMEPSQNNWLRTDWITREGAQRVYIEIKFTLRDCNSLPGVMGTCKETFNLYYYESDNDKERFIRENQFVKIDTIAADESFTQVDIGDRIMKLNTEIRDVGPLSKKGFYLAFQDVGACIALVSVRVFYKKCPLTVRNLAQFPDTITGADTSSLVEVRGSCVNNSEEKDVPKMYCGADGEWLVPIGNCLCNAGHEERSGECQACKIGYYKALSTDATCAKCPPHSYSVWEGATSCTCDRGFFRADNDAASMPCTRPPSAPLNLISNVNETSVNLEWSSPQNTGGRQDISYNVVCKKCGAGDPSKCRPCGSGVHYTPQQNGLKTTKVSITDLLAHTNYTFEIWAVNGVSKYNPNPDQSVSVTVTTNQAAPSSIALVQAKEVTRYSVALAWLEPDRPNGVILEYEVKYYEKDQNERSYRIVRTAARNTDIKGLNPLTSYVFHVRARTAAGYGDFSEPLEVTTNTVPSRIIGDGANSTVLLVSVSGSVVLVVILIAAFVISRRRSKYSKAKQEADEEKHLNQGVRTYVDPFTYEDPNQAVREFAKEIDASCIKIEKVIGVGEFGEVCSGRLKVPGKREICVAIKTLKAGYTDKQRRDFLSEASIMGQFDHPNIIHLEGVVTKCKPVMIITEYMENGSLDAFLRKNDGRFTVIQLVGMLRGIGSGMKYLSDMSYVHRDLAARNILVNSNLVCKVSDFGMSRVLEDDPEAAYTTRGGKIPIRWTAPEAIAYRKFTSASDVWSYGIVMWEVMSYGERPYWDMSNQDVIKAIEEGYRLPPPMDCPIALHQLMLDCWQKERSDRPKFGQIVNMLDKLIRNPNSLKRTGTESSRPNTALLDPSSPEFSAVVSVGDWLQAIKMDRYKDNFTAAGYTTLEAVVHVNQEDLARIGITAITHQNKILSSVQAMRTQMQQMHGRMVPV
The target in a further test is PAK4 (Homo sapiens, UniProt O96013). Conditions: read-out: Remaining protein kinase activity. The method, then:
as §1

The target in another test is T2, IKKb (Homo sapiens, UniProt O14920).
T2 sequence (O14920 1-756): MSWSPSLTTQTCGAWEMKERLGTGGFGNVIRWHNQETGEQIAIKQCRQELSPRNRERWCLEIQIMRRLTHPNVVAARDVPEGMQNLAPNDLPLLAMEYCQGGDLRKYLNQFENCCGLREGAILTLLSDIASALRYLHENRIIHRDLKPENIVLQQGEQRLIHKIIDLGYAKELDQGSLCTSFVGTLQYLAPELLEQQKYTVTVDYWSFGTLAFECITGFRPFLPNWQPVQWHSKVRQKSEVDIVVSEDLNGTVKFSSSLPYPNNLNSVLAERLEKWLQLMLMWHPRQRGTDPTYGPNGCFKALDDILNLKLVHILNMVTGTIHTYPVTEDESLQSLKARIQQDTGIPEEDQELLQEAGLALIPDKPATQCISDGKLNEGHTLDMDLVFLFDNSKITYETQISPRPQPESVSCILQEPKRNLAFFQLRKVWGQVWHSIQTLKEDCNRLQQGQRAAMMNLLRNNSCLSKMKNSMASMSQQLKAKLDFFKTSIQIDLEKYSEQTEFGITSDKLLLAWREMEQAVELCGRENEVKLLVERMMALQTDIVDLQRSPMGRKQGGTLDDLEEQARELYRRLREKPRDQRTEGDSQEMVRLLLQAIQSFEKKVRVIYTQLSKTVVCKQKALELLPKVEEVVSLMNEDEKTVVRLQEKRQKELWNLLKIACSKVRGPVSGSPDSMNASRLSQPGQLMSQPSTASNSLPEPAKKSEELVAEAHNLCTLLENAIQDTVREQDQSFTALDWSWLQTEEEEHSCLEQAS
Conditions: read-out: Remaining protein kinase activity. How it is done:
as §1

In another test the target is ERK5 (Homo sapiens, UniProt Q13164). Conditions: read-out: Remaining protein kinase activity. How it is done: as §1
Chain of ERK5 (Q13164 whole entry, species assumed): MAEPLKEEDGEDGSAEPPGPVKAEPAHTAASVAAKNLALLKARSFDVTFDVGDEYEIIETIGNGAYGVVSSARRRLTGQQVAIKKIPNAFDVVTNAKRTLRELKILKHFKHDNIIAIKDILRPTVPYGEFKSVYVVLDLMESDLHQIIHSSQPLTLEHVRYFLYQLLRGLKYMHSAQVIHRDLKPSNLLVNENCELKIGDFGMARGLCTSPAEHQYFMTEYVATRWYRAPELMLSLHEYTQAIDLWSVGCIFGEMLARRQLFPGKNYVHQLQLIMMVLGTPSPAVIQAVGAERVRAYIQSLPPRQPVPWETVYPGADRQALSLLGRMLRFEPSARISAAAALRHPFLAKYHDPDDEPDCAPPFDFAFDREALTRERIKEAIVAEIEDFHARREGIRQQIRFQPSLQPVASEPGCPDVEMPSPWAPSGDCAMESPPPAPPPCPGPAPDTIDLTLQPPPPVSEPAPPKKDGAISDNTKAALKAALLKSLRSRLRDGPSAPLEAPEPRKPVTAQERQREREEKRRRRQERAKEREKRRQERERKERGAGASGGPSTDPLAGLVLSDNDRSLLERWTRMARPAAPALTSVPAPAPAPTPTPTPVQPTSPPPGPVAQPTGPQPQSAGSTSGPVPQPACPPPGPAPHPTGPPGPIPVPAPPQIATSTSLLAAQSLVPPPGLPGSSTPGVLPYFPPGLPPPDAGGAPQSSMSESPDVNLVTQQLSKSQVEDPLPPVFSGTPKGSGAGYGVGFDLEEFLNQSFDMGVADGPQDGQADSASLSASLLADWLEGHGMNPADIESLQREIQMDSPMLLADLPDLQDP
In another test the target is p38a MAPK (Homo sapiens, UniProt Q16539). The method, then:
as §1

Chain of p38a MAPK (Q16539 whole entry): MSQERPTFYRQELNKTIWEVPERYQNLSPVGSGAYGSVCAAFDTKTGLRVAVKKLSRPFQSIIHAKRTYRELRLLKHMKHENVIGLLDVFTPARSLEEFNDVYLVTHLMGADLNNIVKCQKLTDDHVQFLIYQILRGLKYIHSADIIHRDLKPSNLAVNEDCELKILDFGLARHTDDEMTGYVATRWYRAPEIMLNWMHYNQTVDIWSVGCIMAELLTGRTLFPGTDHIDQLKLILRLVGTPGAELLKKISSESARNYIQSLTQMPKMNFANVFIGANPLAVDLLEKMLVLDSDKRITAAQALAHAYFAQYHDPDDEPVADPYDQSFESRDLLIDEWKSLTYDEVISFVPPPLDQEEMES
Chain of PAK4 (O96013 whole entry): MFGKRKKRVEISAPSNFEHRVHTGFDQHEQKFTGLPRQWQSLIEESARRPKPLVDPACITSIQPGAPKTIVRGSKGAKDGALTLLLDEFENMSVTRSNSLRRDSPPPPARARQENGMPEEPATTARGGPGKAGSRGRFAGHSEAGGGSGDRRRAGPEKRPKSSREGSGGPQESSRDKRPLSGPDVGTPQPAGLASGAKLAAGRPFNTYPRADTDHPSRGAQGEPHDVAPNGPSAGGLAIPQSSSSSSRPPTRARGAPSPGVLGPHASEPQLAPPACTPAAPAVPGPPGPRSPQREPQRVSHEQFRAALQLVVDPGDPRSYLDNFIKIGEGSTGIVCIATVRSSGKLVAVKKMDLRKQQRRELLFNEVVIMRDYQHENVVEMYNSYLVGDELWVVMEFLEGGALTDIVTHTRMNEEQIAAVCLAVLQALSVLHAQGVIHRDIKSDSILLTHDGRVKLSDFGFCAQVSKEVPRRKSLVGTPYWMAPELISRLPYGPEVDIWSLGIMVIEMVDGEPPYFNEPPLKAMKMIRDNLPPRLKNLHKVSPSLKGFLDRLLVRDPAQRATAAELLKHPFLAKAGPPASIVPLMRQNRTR

As a reminder, the remaining activity is the signal under treatment as a percentage of the control signal. As for `COc1ccc2sc(-c3cncc(N)c3)nc2c1` [compound 1, 5-(5-Methoxybenzo[d]thiazol-2-yl)pyridin-3-amine], the remaining activity at 1 µM was determined as 115% on RSK2 (RSK2, 1 μM); 101% at ULK2 (ULK2, 1 μM); 89% on EPH-A4 (EPH-A4, 1 μM); 109% at PAK4 (PAK4, 1 μM); 105% on IKKb (IKKb, 1 μM); 66% at ERK5 (ERK5, 1 μM). Further, the remaining activity at 100 µM at RSK2 (RSK2, 100 μM) was determined as 56%; at ULK2 (ULK2, 100 μM), 50%; at EPH-A4 (EPH-A4, 100 μM) it was 85%; at PAK4 (PAK4, 100 μM), 54%; on IKKb (IKKb, 100 μM), 38%; at ERK5 (ERK5, 100 μM), 37%. Further, the “Remaining protein kinase activity” value at p38a MAPK (1 μM) was determined as 103%; at p38a MAPK (100 μM) it was 96%.
For `COc1ccc2sc(-c3cncc(NC(C)=O)c3)nc2c1` [PST-001, N-(5-(5-Methoxybenzo[d]thiazol-2-yl)pyridin-3-yl)acetamide], the remaining activity at 1 µM at RSK2 came to 113%; on ULK2, 111%; on EPH-A4, 117%; on PAK4 it was 116%; on IKKb, 111%; at ERK5 it was 72%. In addition, the remaining activity at 100 µM at RSK2 came out at 100%; at ULK2, 119%; at EPH-A4, 106%; on PAK4, 98%; at IKKb, 108%; on ERK5, 51%. The “Remaining protein kinase activity” value at p38a MAPK (1 μM) came to 110%; at p38a MAPK (100 μM) it was 106%.
